For the assay, the target named is T1, Falcipain 2 (Plasmodium falciparum, UniProt Q9N6S8).
T1 sequence (Q9N6S8 whole entry): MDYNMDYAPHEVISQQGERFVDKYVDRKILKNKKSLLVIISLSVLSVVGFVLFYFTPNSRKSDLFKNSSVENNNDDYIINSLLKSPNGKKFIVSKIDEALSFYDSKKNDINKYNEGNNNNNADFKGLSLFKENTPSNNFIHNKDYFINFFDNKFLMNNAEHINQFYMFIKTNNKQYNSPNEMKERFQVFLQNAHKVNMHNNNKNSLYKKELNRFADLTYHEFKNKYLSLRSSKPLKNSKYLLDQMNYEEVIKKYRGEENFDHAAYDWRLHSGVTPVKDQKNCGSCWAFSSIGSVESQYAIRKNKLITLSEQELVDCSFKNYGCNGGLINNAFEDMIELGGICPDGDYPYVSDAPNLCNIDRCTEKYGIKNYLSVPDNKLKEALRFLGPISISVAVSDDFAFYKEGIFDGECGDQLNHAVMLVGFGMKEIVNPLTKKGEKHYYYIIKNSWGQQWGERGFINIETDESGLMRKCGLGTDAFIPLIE
The assay is described as follows: Falcipain-2 Inhibition Assay. As to conditions: pH 5.5; 22 °C. The procedure: IC50 values against the recombinant falcipain-2 were determined by incubating protein with different concentrations of inhibitors in reaction buffer after addition of the substrate. Fluorescence was continuously monitored for 30 min at room temperature in a Labsystems Fluoroscan Ascent spectrofluorometer. IC50 values were determined from plots of activity over inhibitor concentration with GraphPad Prism software.

Data on 1 compound can be found in BindingDB's records for doi:10.1016/j.bmc.2006.09.055 (University of Cape Town, 2007).

Regarding `NC(=S)NN=Cc1ccc(O)cc1O` [2,4-dihydroxybenzaldehyde thiosemicarbazone], the IC50 (as a rule, the concentration that inhibits the measured activity by half) was greater than 20 µM.
